From ChEMBL document CHEMBL3886406, “Substituted pyrrolo[2,3-b]pyridines as ITK and JAK inhibitors” (2015)

biological target: T1, Tyrosine-protein kinase ITK/TSK (Homo sapiens, UniProt Q08881); experiment: Biochemical Inhibition Assay: 1H-pyrrolo[2,3-b]pyridine, 1H-pyrazolo[3,4-b]pyridine and 5H-pyrrolo[2,3-b]pyrazine series of compounds exhibited over >100 fold selective against Janus and TEC family of kinases except for the BMX and TXK it had activity of 30 and 45 nM respectively.
T1 sequence (Q08881 whole entry): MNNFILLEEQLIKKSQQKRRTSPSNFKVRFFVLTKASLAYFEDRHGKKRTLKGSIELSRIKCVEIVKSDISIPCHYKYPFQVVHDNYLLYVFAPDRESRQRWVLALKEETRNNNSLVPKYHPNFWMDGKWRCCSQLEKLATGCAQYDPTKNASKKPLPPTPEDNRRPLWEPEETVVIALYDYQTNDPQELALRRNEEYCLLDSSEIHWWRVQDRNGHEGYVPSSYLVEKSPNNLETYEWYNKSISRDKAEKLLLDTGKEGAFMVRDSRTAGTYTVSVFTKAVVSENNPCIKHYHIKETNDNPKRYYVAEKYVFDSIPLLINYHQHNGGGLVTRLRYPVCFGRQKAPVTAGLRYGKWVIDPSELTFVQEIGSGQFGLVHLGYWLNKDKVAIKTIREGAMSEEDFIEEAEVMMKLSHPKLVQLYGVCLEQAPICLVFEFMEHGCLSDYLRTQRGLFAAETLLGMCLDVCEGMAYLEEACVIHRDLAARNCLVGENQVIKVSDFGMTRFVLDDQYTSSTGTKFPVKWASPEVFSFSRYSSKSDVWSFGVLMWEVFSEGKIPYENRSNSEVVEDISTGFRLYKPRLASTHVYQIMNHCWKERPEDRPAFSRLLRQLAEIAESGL

IC50 | SMILES
in the range around 72.4 nM | C=CC(=O)Nc1cccc(-c2cnc3[nH]cc(-c4cccc(C)c4F)c3c2)c1
in the range around 35 nM | C=CC(=O)Nc1cccc(-c2cnc3[nH]cc(-c4cccc(S(=O)(=O)N(CC)CC)c4)c3c2)c1

More lines, now with the values behind:

SMILES | IC50
C=CC(=O)Nc1cccc(-c2cnc3[nH]cc(C)c3c2)c1 | in the range around 35 nM
C=CC(=O)Nc1cccc(-c2cnc3[nH]cc(Cl)c3c2)c1 | in the range around 35 nM
C=CC(=O)Nc1cccc(-c2cnc3[nH]cc(-c4cc5ccccc5[nH]4)c3n2)c1 | in the range around 35 nM
